The values below come from patent US20220025331A1, “METHODS AND SYSTEMS FOR IMPROVING CELLS FOR USE IN THERAPY” (priority 2017, published 2022).

One assay relates to P3 and P3R foACs. Description: Chondrocyte F-actin visualization (phalloidin staining). It is filed as cell-based, sheep. The procedure:
Chondrocyte Actin Visualization: In Phase 2, to visualize the effects of cytochalasin D treatment on cytoskeletal-mediated chondrogenic redifferentiation, F-actin staining was performed on untreated P0 foACs and both cytochalasin D treated and untreated P3 and P3R foACs. Approximately 8×10^3 cells/cm^2 were allowed to attach to glass slides for 1 hour in the presence of 2% FBS. Non-adherent cells were washed away with two exchanges of PBS, followed by the fixation of attached cells in 3.9% formaldehyde in PBS for 10 minutes. After another two washes with PBS, fixed cells were permeabilized with 0.1% Triton-X 100 (Sigma) in PBS for 5 minutes. Following two washes with PBS, cells were stained with CF594-conjugated phalloidin (Biotium; 1200 dilution in PBS) for 30 minutes. Excess stain was washed away with two exchanges of PBS and the cells were counterstained with DAPI-containing Vectashield (Vector Laboratories) and coverslipped for visualization using a Texas Red fluorescent channel.

The next assay has as its system P3 foAC neocartilage. Description: Phase 2: cytochalasin D and hyaluronidase treatment of P3 (passaged, not redifferentiated) neocartilage. It is filed as cell-based, sheep. The conditions noted are these: P3, 2 million cells/construct; for construct diameter: Cyto D 2 μM first 48 hours, Hya 200 units/mL at seeding. On the procedure:
(§1) Chondrocyte Isolation: Fetal ovine articular chondrocytes (foACs) were harvested from the patellofemoral surfaces of 120-day gestation Dorper cross sheep obtained as medical waste (UC Davis School of Veterinary Medicine). Cartilage from the whole surface of both condyles and the trochlear groove was minced into approximately 1 mm^3 pieces, then washed and centrifuged (500 G for 5 minutes) three times with Dulbecco's Modified Eagle Medium containing 4.5 g/L glucose and GlutaMAX (DMEM; Gibco) and 2% (v/v) penicillin/streptomycin/fungizone (PSF; Lonza). The tissue was digested in 0.2% (w/v) collagenase type II (Worthington) in DMEM containing 3% (v/v) fetal bovine serum (FBS; Atlanta Biologicals) for 18 hours at 37° C. with gentle rocking. After digestion, the resultant cell solutions were filtered through 70 μm cell strainers. For Studies 1-3, foACs were washed with ACK buffer (154.4 mM ammonium chloride (Sigma), 10 mM potassium bicarbonate (Fisher Scientific), 50 mM EDTA tetrasodium salt (Acros Organics) in ultrapure water for three minutes as previously described. These primary (P0) foACs were then frozen in DMEM with 20% (v/v) DMSO (Sigma) and 10% (v/v) FBS.
(§2) Chondrocyte Expansion and Redifferentiation: Previously frozen P0 foACs were seeded in T-225 flasks at 1.5×10^4 cells/cm^2 and expanded in chemically defined chondrogenic medium (CHG medium) (DMEM containing 1% PSF, 1% ITS+ premix (BD Biosciences), 1% non-essential amino acids (Gibco), 100 nM dexamethasone (Sigma), 50 mg/mL ascorbate-2-phosphate (Sigma), 40 g/mL L-proline (Sigma), and […] sodium pyruvate (Sigma)) with 2% FBS and chondrogenically tuned TFP supplementation (1 ng/mL TGF-μ1, 5 ng/mL bFGF, 10 ng/mL PDGF; al from PeproTech). Media was exchanged every 2-3 days. At confluence, cells were lifted with 0.5% Trypsin-EDTA (Gibco) for 5 minutes followed by digestion of the cell layers with DMEM containing 0.2% collagenase type II and 2% FBS for approximately 1 hour at 37° C., triturating every 20 minutes. The resulting cell solution was filtered through a 70 μm cell strainer and reseeded into T-225 flasks to achieve three passages (P3). P3 foACs underwent aggregate redifferentiation (P3R) as previously described. Briefly, 750,000 cells/mL CHG medium containing TGB supplementation (10 ng/mL TGF-β1, 100 ng/mL GDF-5, 100 ng/mL BMP-2; al from PeproTech) were cultured in 100 mm×20 mm petri dishes coated with 1% (w/v) molecular biology grade agarose (Thermo Fisher Scientific) made with phosphate buffered saline (PBS; Sigma) to create a non-adherent environment. Aggregate cultures were maintained on an orbital shaker at 60 rpm for the first 3 days and remained static for the remainder of the 14-day redifferentiation period. Media was exchanged every 2-3 days. At the end of the culture period, aggregates were digested with 0.5% Trypsin-EDTA for 20 minutes, followed by 0.2% collagenase in DMEM with 2% FBS for approximately 2 hours at 37° C., triturating every 20 minutes. Following dissociation of the aggregates, cells were filtered through a 70 μm cell strainer and counted.
(§3) Neocartilage Construct Seeding and Culture: P0, P3, or P3R foACs were self-assembled into engineered neocartilage constructs in non-adherent agarose wells. A sterile stainless steel mold consisting of 5 mm diameter cylindrical posts was inserted into a 48-well plate, each well containing 1 mL molten 2% (w/v) agarose to create a single agarose well per plate well. After solidification of the agarose at room temperature, the mold was removed. Agarose wells were filled with CHG medium exchanged twice over the course of 5 days to ensure saturation of the agarose before seeding. For each phase, cells were seeded into 5 mm agarose wells in 100 μL CHG medium per well. In Phase 1, P0 or P3R foACs were each seeded at five densities: 2, 3, 4, 5, and 6 million cells per construct. In Phase 2, P3 and P3R foACs were seeded at 2 million cells per construct. In Phase 3, 2 million P3R foACs were seeded. […]

The test system of assay [1] is adult human costal chondrocytes (ahCCs). Description: Cyto D treatment of self-assembled neocartilage from human costal chondrocytes (FIG. 18). The conditions noted are these: ahCCs P3 rejuvenated, 2 million cells, 2 μM at day 0-2. It is filed as cell-based. The procedure: Control constructs were untreated. Constructs treated with cytochalasin D (Cyto D) were treated with 2 μM at day 0-2. […] This example clearly illustrates that it is not obvious that a treatment that is beneficial for cells from one species will be beneficial when applied to cells from another species.

The test system of assay [2] is P3R foAC neocartilage. The experiment in a line: Phase 2: cytochalasin D and hyaluronidase treatment of P3R (passaged, redifferentiated) neocartilage. It is filed as cell-based, sheep. The conditions noted are these: for neocartilage thickness / neocartilage wet weight / construct diameter: P3R Opt; for construct diameter: Cyto D 2 μM first 48 hours, Hya 200 units/mL at seeding. The procedure:
as §1, §2, §3

For assay [3], the system named is P3R foAC neocartilage. Description: Phase 3: TCL treatment of cytochalasin D treated P3R Opt neocartilage. It is filed as cell-based, sheep. The conditions noted are these: Phase 3, P3R Opt, 2 million cells. On the procedure: as §1
Chondrocyte Expansion and Redifferentiation: Previously frozen P0 foACs were seeded in T-225 flasks at 1.5×10^4 cells/cm^2 and expanded in chemically defined chondrogenic medium (CHG medium) (DMEM containing 1% PSF, 1% ITS+ premix (BD Biosciences), 1% non-essential amino acids (Gibco), 100 nM dexamethasone (Sigma), 50 mg/mL ascorbate-2-phosphate (Sigma), 40 g/mL L-proline (Sigma), and […] sodium pyruvate (Sigma)) with 2% FBS and chondrogenically tuned TFP supplementation (1 ng/mL TGF-μ1, 5 ng/mL bFGF, 10 ng/mL PDGF; al from PeproTech). Media was exchanged every 2-3 days. At confluence, cells were lifted with 0.5% Trypsin-EDTA (Gibco) for 5 minutes followed by digestion of the cell layers with DMEM containing 0.2% collagenase type II and 2% FBS for approximately 1 hour at 37° C., triturating every 20 minutes. […] Following dissociation of the aggregates, cells were filtered through a 70 μm cell strainer and counted. […]

Where [4] appears, read: P3R Opt neocartilage, over the untreated group.
The mark [5] stands for this setting: cytochalasin D treated P3R Opt neocartilage.
[6] abbreviates: foACs P3 rejuvenated, 2 million cells, 2 μM at day 0-2, FIG. 18.

`C=C1[C@@H](C)[C@H]2[C@H](Cc3ccccc3)NC(=O)[C@]23[C@H](OC(C)=O)/C=C/[C@@](C)(O)C(=O)[C@@H](C)C/C=C/[C@H]3[C@@H]1O` [cytochalasin D]: the actin arrangement entry in the assay with P3 and P3R foACs (P3R chondrocytes) is “localized more of the actin cortically than in untreated P3R cells”. Moreover, the “cell shape and actin arrangement” value with P3 and P3R foACs (P3 chondrocytes) was “induced a rounded cell shape”. In the assay with P3 foAC neocartilage, this compound yielded a neocartilage thickness of 0.4±0.1 mm, a neocartilage wet weight of 8.4 ± 1.0 mg and a construct diameter of 3.7±0.2 mm. In assay [1], the aggregate modulus entry was “significantly decreased” and the shear modulus result is “significantly decreased”. Moreover, the “increase of aggregate modulus over the P0 control” value with P3R foAC neocartilage [2] (ACK treated P3R cells, 2 million cells/construct, vs untreated P0 control) is reported as 9.6 fold. The compound also had a neocartilage aggregate modulus in the assay with P3R foAC neocartilage [2] (ACK treated P3R chondrocytes seeded at 2 million cells/construct) of 400 kPa. In addition, in the assay on P3R foAC neocartilage [2] (setting [4]), the “increase in compressive stiffness (aggregate modulus)” value is listed as 0.9 fold, the “increase in tensile stiffness” value worked out at 1.0 fold and the “increase in tensile strength” value was found to be 2.7 fold. In the assay with P3R foAC neocartilage [2] (2 million cells/construct), this compound came in with a neocartilage thickness of 0.7±0.1 mm, a neocartilage wet weight of 28.1 ± 2.6 mg and a construct diameter of 6.5±0.2 mm. Further, the GAG/wet weight result in the assay on P3R foAC neocartilage [2] (P3R neocartilage, FIG. 8C) was “increased”. In the assay with P3R foAC neocartilage [2] (setting [5]), the “functionality index (FI) with respect to native fetal cartilage” value came to 1.1 and the “functionality index (FI) with respect to native juvenile cartilage” value was found to be 0.83. In the assay on P3R foAC neocartilage [2] (setting [6]), the compressive aggregate modulus result is listed as “significantly increased” and the shear modulus result was “significantly increased”. In the assay with P3R foAC neocartilage [3], this compound had a neocartilage diameter of 6.5±0.4 mm, a neocartilage thickness of 0.8±0.2 mm and a neocartilage wet weight of 87.1 ± 3.6 mg.
In the assay with P3 foAC neocartilage, hyaluronidase came in with a neocartilage thickness of 2.0±0.2 mm, a neocartilage wet weight of 6.7 ± 0.4 mg and a construct diameter of 2.6±0.1 mm. In the assay on P3R foAC neocartilage [2] (2 million cells/construct), this compound displayed a neocartilage thickness of 0.8±0.2 mm, a neocartilage wet weight of 23.9 ± 1.4 mg and a construct diameter of 5.9±0.0 mm.
